Three compounds from ChEMBL document CHEMBL3108758, “Design, synthesis, and biological evaluation of potent and selective class IIa histone deacetylase (HDAC) inhibitors as a potential therapy for Huntington's disease” (J Med Chem, 2013) can be followed below.

Series [1] has as its system Brain. In words: Cmax in C57BL/6JO1aHsd mouse brain at 10 mg/kg, po. The following applies: in vivo. Set-up: dose 10 mg/kg, route oral. Format: ADME, organism-based.
A short description of series [2]: Tmax in C57BL/6JO1aHsd mouse plasma at 10 mg/kg, po. Further details: dose 10 mg/kg, route oral. It counts as ADME, organism-based.
Series [3] can be described thus: Tmax in C57BL/6JO1aHsd mouse muscle at 10 mg/kg, po. Format: ADME, organism-based, Muscle tissue. Set-up: dose 10 mg/kg, route oral.
The test system of series [4] is Muscle tissue. In words: Dose normalized AUC in C57BL/6JO1aHsd mouse muscle at 10 mg/kg, po. Further details: dose 10 mg/kg, route oral. Conditions: in vivo. It counts as ADME, organism-based.
Series [5] concerns Muscle tissue. In words: Cmax in C57BL/6JO1aHsd mouse muscle at 10 mg/kg, po. The following applies: in vivo. Further details: dose 10 mg/kg, route oral. It counts as ADME, organism-based.
Series [6] has as its system Plasma. Nature of the series: Cmax in C57BL/6JO1aHsd mouse plasma at 10 mg/kg, po. Format: ADME, organism-based. Further details: dose 10 mg/kg, route oral. Conditions: in vivo.
The test system of series [7] is Plasma. Nature of the series: Dose normalized AUC in C57BL/6JO1aHsd mouse plasma at 10 mg/kg, po. Format: ADME, organism-based. Further details: dose 10 mg/kg, route oral. Conditions: in vivo.
Series [8] in a line: Tmax in C57BL/6JO1aHsd mouse brain at 10 mg/kg, po. It counts as ADME, organism-based. Further details: dose 10 mg/kg, route oral.
Series [9] has as its system Brain. Nature of the series: Dose normalized AUC in C57BL/6JO1aHsd mouse brain at 10 mg/kg, po. Format: ADME, organism-based. Set-up: dose 10 mg/kg, route oral. Conditions: in vivo.
Series [10] is described as follows: Volume of distribution at steady state in C57BL/6JO1aHsd mouse at 5 mg/kg, iv. It counts as ADME, organism-based. Further details: dose 5 mg/kg, route intravenous. The following applies: in vivo, read-out: Vdss.
Series [11] can be described thus: Oral bioavailability in C57BL/6JO1aHsd mouse at 10 mg/kg. It counts as ADME, organism-based. The following applies: in vivo.
Series [12] can be described thus: Ratio of drug uptake from muscle to plasma in C57BL/6JO1aHsd mouse at 10 mg/kg, po. Format: ADME, organism-based. Set-up: dose 10 mg/kg, route oral.
A short description of series [13]: Ratio of drug uptake from brain to plasma in C57BL/6JO1aHsd mouse at 10 mg/kg, po. Format: ADME, organism-based. Further details: dose 10 mg/kg, route oral. The following applies: read-out: BPR.

As to `O=C(NO)[C@@H]1[C@H](c2ccccc2)[C@H]1c1ccc(-c2cnco2)cc1`, the Cmax normalised in the series with Brain [1] amounted to 670 nM·kg/mg; in the series on Muscle tissue [5] it was 730 nM·kg/mg; in the series on Plasma [6], 1200 nM·kg/mg. For the same compound, the time of peak concentration (Tmax) in series [2], in [3] and in [8] was 30 min throughout. The AUC/dose with Muscle tissue [4] was found to be 810 nM·kg·h/mg; in the series on Plasma [7], 1300 nM·kg·h/mg; in the series with Brain [9], 700 nM·kg·h/mg. The Vd in series [10] is 0.74 L/kg. For the same compound, the bioavailability in [11] was found to be 84%.

With `O=C(NO)[C@@H]1[C@H](c2ccccc2)[C@H]1c1ccc(-c2cnc(C3CC3)o2)cc1`, the Cmax normalised with Brain [1] worked out at 200 nM·kg/mg; with Muscle tissue [5], 420 nM·kg/mg; in the series on Plasma [6], 810 nM·kg/mg. Also, the Tmax is 30 min in series [2], 60 min in series [3] and 60 min in [8]. Further, the AUC/dose with Muscle tissue [4] is 1000 nM·kg·h/mg; in the series with Plasma [7] it was 1500 nM·kg·h/mg; in the series on Brain [9] it was 390 nM·kg·h/mg. The values for the Kp in [12] and in [13] were 0.4 and 0.3, respectively. Besides, in series [10], the Vd is 1.6 L/kg. In series [11], this compound yielded a bioavailability of 73%.

`O=C(NO)[C@@H]1[C@H](c2ccccc2)[C@H]1c1ccc2c(c1)CN(CC(F)(F)F)C2=O`: the Cmax normalised with Brain [1] amounted to 5.7 nM·kg/mg; with Muscle tissue [5], 160 nM·kg/mg; with Plasma [6], 280 nM·kg/mg. For the same compound, the Tmax was determined as 30 min in series [2], 60 min in [3] and 30 min in [8]. The AUC/dose with Muscle tissue [4] was found to be 1000 nM·kg·h/mg; in the series on Plasma [7] it was 1100 nM·kg·h/mg; with Brain [9], 17 nM·kg·h/mg. Moreover, the Vd in series [10] worked out at 4.6 L/kg. Moreover, the bioavailability in series [11] worked out at 62%.
